We go through 20 molecules from patent US8466153B2, “Piperidinylamino-pyridazines and their use as fast dissociating dopamine 2 receptor antagonists” (Janssen Pharmaceutica N.V., priority 2006, dated 2013).

Data set [1] concerns Apomorphine-induced agitation, stereotypy in rats. Description: Inhibition of the apomorphine induced agitation test in rats. It is filed as in vivo. The settings on record: Rattus norvegicus, 0.5 h, apomorphine 1.0 mg/kg i.v. at 30 min, male Wiga Wistar rats. How it is done: Male Wiga Wistar rats (180-280 g) were administered test compound (sc: subcutaneously; po: orally; n=3 per dose; dose=0.16, 0.63 and 2.5 mg/kg) or solvent and then challenged with apomorphine (1.0 mg/kg, i.v.) at 30 min. The effects of the test compound on the behavioral changes were evaluated according to all-or-none criteria based on the distribution of results in a large series of control data obtained in solvent-pretreated rats.
Apomorphine (1.0 mg/kg, i.v.)-induced agitation, stereotypy (compulsive sniffing, licking, chewing), was scored every 5 min over the first hour after injection of apomorphine. The score system was: (3) pronounced, (2) moderate, (1) slight, and (0) absent. […] The table below gives the lowest active dose at which 3 out of 3 rats tested met one of the criteria for drug-induced inhibition of agitation.

For data set [2], the target named is T1, human Dopamine D2L receptor (Homo sapiens, UniProt P14416).
T1 construct: expressed in transfected cells; host or cells: CHO cells
Nature of the data set: In vitro binding affinity for human D2L receptor ([3H]spiperone competition). The conditions noted are these: membranes of human D2L receptor-transfected CHO cells, 30 min, 37° C. An excerpt:
In order to find antipsychotic compounds active against positive symptoms and having an improved safety profile (low EPS incidence and no metabolic disorders), we have screened for compounds selectively interacting with the dopamine D2 receptor and dissociating fast from this receptor. Compounds were first screened for their D2 affinity in a binding assay using [^3H]spiperone and human D2L receptor cell membranes.
Frozen membranes of human Dopamine D2L receptor-transfected CHO cells were thawed, briefly homogenised using an Ultra-Turrax T25 homogeniser and diluted in Tris-HCl assay buffer containing NaCl, CaCl2, MgCl2, KCl (50, 120, 2, 1, and 5 mM respectively, adjusted to pH 7.7 with HCl) to an appropriate protein concentration optimised for specific and non-specific binding. Radioligand [^3H]Spiperone (NEN, specific activity ˜70 Ci/mmol) was diluted in assay buffer at a concentration of 2 nmol/L. Prepared radioligand (50 μl), along with 50 μl of either the 10% DMSO control, Butaclamol (10^−6 mol/l final concentration), or compound of interest, was then incubated (30 min, 37° C.) with 400 μl of the prepared membrane solution. Membrane-bound activity was filtered through a Packard Filtermate harvester onto GF/B Unifilterplates and washed with ice-cold Tris-HCl buffer (50 mM; pH 7.7; 6×0.5 ml). Filters were allowed to dry before adding scintillation fluid and counting in a Topcount scintillation counter. Percentage specific bound and competition binding curves were calculated using S-Plus software (Insightful).

The next data set has as its target T2, human D2L receptor (Homo sapiens, UniProt P14416).
T2 construct: expressed in transfected cells
Description: Fast dissociation (indirect [3H]spiperone filter assay). The settings on record: compound at 4 times its IC50 pre-incubated 1 h at 25° C.; [3H]spiperone 1 nM on filter for 5 minutes. It is filed as binding. How it is done: Compounds were first screened for their D2 affinity in a binding assay using [^3H]spiperone and human D2L receptor cell membranes.
Immediately after, the vacuum was released. 0.4 ml of pre-warmed buffer (25° C.) containing 1 nM [^3H]spiperone was added on the filter for 5 minutes. The incubation was stopped by initiating the vacuum and immediate rinsing with 2×5 ml of ice-cold buffer. The filter-bound radioactivity was measured in a liquid scintillation spectrometer. The principle of the assay is based on the assumption that the faster a compound dissociates from the D2 receptor, the faster [^3H]spiperone binds to the D2 receptor.

In data set [3] the test system is panel of more than 50 common G-protein coupled receptors (CEREP). Nature of the data set: Screen in a panel of more than 50 common G-protein coupled receptors (CEREP). In kind it is binding. The conditions noted are these: panel of more than 50 GPCRs. An excerpt: Selected compounds E15, E16, E17 and E18 were further screened in a panel of more than 50 common G-protein coupled receptors (CEREP) and found to have a clean profile, that is to have low affinity for the tested receptors.

The mark [4] stands for this setting: sc, subcutaneously, read-out: sc Dose: lowest active dose at which 3 out of 3 rats met a criterion for inhibition of agitation.
[5] abbreviates: po, orally, read-out: po Dose: lowest active dose at which 3 out of 3 rats met a criterion for inhibition of agitation.

The structures appear in SMILES notation. pIC50: −log10 of the molar value. Where two headings read alike, the source gives them in different places.

T1 sequence (P14416 whole entry): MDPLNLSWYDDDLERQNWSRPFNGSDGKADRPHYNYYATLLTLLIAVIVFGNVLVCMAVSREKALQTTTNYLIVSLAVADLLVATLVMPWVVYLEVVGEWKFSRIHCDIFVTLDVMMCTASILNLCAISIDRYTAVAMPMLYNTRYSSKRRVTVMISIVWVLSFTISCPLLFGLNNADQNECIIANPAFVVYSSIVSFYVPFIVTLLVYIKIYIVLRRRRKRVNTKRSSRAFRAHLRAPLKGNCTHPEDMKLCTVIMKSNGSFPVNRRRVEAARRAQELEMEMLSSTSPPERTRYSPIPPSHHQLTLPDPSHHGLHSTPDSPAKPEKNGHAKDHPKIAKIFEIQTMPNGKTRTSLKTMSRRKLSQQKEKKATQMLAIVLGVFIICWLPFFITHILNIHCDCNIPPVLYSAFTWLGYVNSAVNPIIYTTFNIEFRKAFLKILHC
T2 sequence (P14416 whole entry): as above

`N#Cc1ccc(NC2CCN(Cc3ccccc3)CC2)nn1` [Example D2, 6-(1-Benzyl-piperidin-4-ylamino)-pyridazin-3-carbonitrile]: in data set [1] (setting [4]), the minimal effective dose was 2.5 mg/kg. This molecule had a pIC50 in data set [2] of 5.53.

Take `N#Cc1ccc(NC2CCN(Cc3ccc(F)c(F)c3)CC2)nn1` [Example E1, 6-[1-(3,4-Difluoro-benzyl)-piperidin-4-ylamino]-pyridazine-3-carbonitrile]: the melting point turned out to be 189.86 °C. Moreover, in data set [1] (setting [4]), the minimal effective dose was 2.5 mg/kg. The pIC50 in data set [2] was 5.39.

The molecule `N#Cc1ccc(NC2CCN(Cc3ccc(F)cc3)CC2)nn1` [Example E2, 6-[1-(4-Fluoro-benzyl)-piperidin-4-ylamino]-pyridazine-3-carbonitrile] had a melting point of 187.44 °C. For the same molecule, the minimal effective dose in data set [1] (setting [5]) worked out at 0.63 mg/kg. Besides, in data set [1] (setting [4]), the minimal effective dose turned out to be 0.63 mg/kg. The molecule further had a pIC50 in data set [2] of 5.49.

Molecule `N#Cc1ccc(NC2CCN(Cc3ccc(Cl)cc3)CC2)nn1` [Example E3, 6-[1-(4-Chloro-benzyl)-piperidin-4-ylamino]-pyridazine-3-carbonitrile] displayed a melting point of 209.77 °C. For the same molecule, the minimal effective dose in data set [1] (setting [4]) is 0.63 mg/kg. The pIC50 in data set [2] was 5.98. The “% Dissociation” value on human D2L receptor was found to be 87%.

In the case of `Cc1ccc(CN2CCC(Nc3ccc(C#N)nn3)CC2)cc1F` [Example E4, 6-[1-(3-Fluoro-4-methyl-benzyl)-piperidin-4-ylamino]-pyridazine-3-carbonitrile], the melting point is 171.84 °C. For the same molecule, in data set [1] (setting [4]), the minimal effective dose was 0.16 mg/kg. In addition, the pIC50 in data set [2] is 6.39. Moreover, the “% Dissociation” value on human D2L receptor came to 82%.

The molecule `N#Cc1ccc(NC2CCN(Cc3cccc(F)c3)CC2)nn1` [Example E5, 6-[1-(3-Fluoro-benzyl)-piperidin-4-ylamino]-pyridazine-3-carbonitrile] gave a melting point of 190.3 °C. The minimal effective dose in data set [1] (setting [4]) was 2.5 mg/kg. Further, in data set [2], the pIC50 was 5.22.

Turning to `Cc1ccc(CN2CCC(Nc3ccc(C#N)nn3)CC2)cc1` [Example E6, 6-[1-(4-Methyl-benzyl)-piperidin-4-ylamino]-pyridazine-3-carbonitrile], the melting point was 191.62 °C. In addition, the minimal effective dose in data set [1] (setting [4]) came to 2.5 mg/kg. Further, in data set [2], the pIC50 is 6.02. Further, at human D2L receptor, the “% Dissociation” value stood at 84%.

Take `N#Cc1ccc(NC2CCN(Cc3ccc(C(F)(F)F)cc3)CC2)nn1` [Example E7, 6-[1-(4-Trifluoromethyl-benzyl)-piperidin-4-ylamino]-pyridazine-3-carbonitrile]: the melting point came to 243.1 °C. Also, the minimal effective dose in data set [1] (setting [5]) came out at 2.5 mg/kg. In addition, the minimal effective dose in data set [1] (setting [4]) is 0.63 mg/kg. In addition, in data set [2], the pIC50 is less than 5.00. Also, on human D2L receptor, the “% Dissociation” value was 93.50%.

Molecule `N#Cc1ccc(NC2CCN(Cc3ccc(C(F)(F)F)c(F)c3)CC2)nn1` [Example E8, 6-[1-(3-Fluoro-4-trifluoromethyl-benzyl)-piperidin-4-ylamino]-pyridazine-3-carbonitrile] showed a melting point of 178.6 °C. In addition, the minimal effective dose in data set [1] (setting [5]) stood at 2.5 mg/kg. Further, the minimal effective dose in data set [1] (setting [4]) was found to be 2.5 mg/kg. The molecule also gave a pIC50 in data set [2] of 5.12. Also, the “% Dissociation” value on human D2L receptor is recorded as 89.50%.

On to `N#Cc1ccc(NC2CCN(Cc3ccc(F)c(C(F)(F)F)c3)CC2)nn1` [Example E9, 6-[1-(4-Fluoro-3-trifluoromethyl-benzyl)-piperidin-4-ylamino]-pyridazine-3-carbonitrile], for which the melting point is 183.1 °C. Also, the minimal effective dose in data set [1] (setting [4]) is 2.5 mg/kg. The molecule further had a pIC50 in data set [2] of 5.17.

`Cc1ccc(CN2CCC(Nc3ccc(C#N)nn3)CC2)cc1C(F)(F)F` [Example E10, 6-[1-(4-Methyl-3-trifluoromethyl-benzyl)-piperidin-4-ylamino]-pyridazine-3-carbonitrile] gave a melting point of 187.3 °C. Moreover, in data set [1] (setting [4]), the minimal effective dose is more than 2.5 mg/kg. This molecule also gave a pIC50 in data set [2] of 5.19.

Turning to `N#Cc1ccc(NC2CCN(Cc3cc(C(F)(F)F)cc(C(F)(F)F)c3)CC2)nn1` [Example E11, 6-[1-(3,5-Bis-trifluoromethyl-benzyl)-piperidin-4-ylamino]-pyridazine-3-carbonitrile], the melting point came to 125 °C. In addition, the pIC50 in data set [2] is less than 5.00.

Turning to `N#Cc1ccc(NC2CCN(Cc3cc(C(F)(F)F)ccc3F)CC2)nn1` [Example E12, 6-[1-(2-Fluoro-5-trifluoromethyl-benzyl)-piperidin-4-ylamino]-pyridazine-3-carbonitrile], the melting point is 142.5 °C. The minimal effective dose in data set [1] (setting [4]) is more than 2.5 mg/kg. Besides, the pIC50 in data set [2] is 5.20.

For the molecule `N#Cc1ccc(NC2CCN(Cc3cccc(Cl)c3)CC2)nn1` [Example E13, 6-[1-(3-Chloro-benzyl)-piperidin-4-ylamino]-pyridazine-3-carbonitrile], the melting point is 151 °C. The minimal effective dose in data set [1] (setting [4]) is 2.5 mg/kg. The same molecule had a pIC50 in data set [2] of 5.49.

`N#Cc1ccc(NC2CCN(Cc3ccc(OC(F)(F)F)c(Cl)c3)CC2)nn1` [Example E14, 6-[1-(3-Chloro-4-trifluoromethoxy-benzyl)-piperidin-4-ylamino]-pyridazine-3-carbonitrile] had a pIC50 in data set [2] of less than 5.00.

For `N#Cc1ccc(NC2CCN(Cc3cc(F)cc(F)c3)CC2)nn1` [Example E15, 6-[1-(3,5-Difluoro-benzyl)-piperidin-4-ylamino]-pyridazine-3-carbonitrile], the melting point is 187.9 °C. Further, the “affinity profile for the tested receptors” value (from here on “affinity profile”) in data set [3] was “low affinity”. The minimal effective dose in data set [1] (setting [5]) was 1.25 mg/kg. Moreover, in data set [1] (setting [4]), the minimal effective dose was 0.63 mg/kg. In data set [2], this molecule gave a pIC50 of 5.18. Besides, the “% Dissociation” value at human D2L receptor was determined as 93.50%.

In turn, `N#Cc1ccc(NC2CCN(Cc3cccc(C(F)(F)F)c3)CC2)nn1` [Example E16, 6-[1-(3-Trifluoromethyl-benzyl)-piperidin-4-ylamino]-pyridazine-3-carbonitrile] showed a melting point of 170.3 °C. Besides, in data set [3], the “affinity profile” value is listed as “low affinity”. Besides, in data set [1] (setting [5]), the minimal effective dose came to 0.63 mg/kg. For the same molecule, in data set [1] (setting [4]), the minimal effective dose came out at 0.63 mg/kg. The pIC50 in data set [2] was 5.85. Also, the “% Dissociation” value at human D2L receptor was 79.50%.

Regarding `N#Cc1ccc(NC2CCN(Cc3cc(F)cc(C(F)(F)F)c3)CC2)nn1` [Example E17, 6-[1-(3-Fluoro-5-trifluoromethyl-benzyl)-piperidin-4-ylamino]-pyridazine-3-carbonitrile], the melting point was found to be 151.4 °C. Also, the “affinity profile” value in data set [3] is recorded as “low affinity”. In addition, the minimal effective dose in data set [1] (setting [5]) was determined as 1.25 mg/kg. For the same molecule, the minimal effective dose in data set [1] (setting [4]) amounted to 0.63 mg/kg. The molecule also gave a pIC50 in data set [2] of 5.52. In addition, the “% Dissociation” value on human D2L receptor was determined as 73%.

As to `Cc1c(C#N)nnc(NC2CCN(Cc3cc(F)cc(F)c3)CC2)c1C` [Example E19, 6-[1-(3,5-Difluoro-benzyl)-piperidin-4-ylamino]-4,5-dimethyl-pyridazine-3-carbonitrile], the minimal effective dose in data set [1] (setting [5]) came out at 2.5 mg/kg; in data set [1] (setting [4]), 0.63 mg/kg. In data set [2], the pIC50 was 5.74. Further, the “% Dissociation” value at human D2L receptor was 83.66%.

Regarding `Cc1cc(NC2CCN(Cc3cc(F)cc(F)c3)CC2)nnc1C#N` [Example E20, 6-[1-(3,5-Difluoro-benzyl)-piperidin-4-ylamino]-4-methyl-pyridazine-3-carbonitrile], the minimal effective dose in data set [1] (setting [4]) came out at 2.5 mg/kg. Further, the pIC50 in data set [2] was 5.21.

By pIC50 is commonly meant the negative decadic logarithm of the IC50, by convention in mol/L. The melting point is the temperature, or range, at which the solid turns liquid.
